Reference: ChEMBL document CHEMBL1201862, “PubChem BioAssay data set” (2004)
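Grown in 96-well plates, cells were treated for 48 hours with each compound at five concentrations. Insufficient inhibition: endpoint recorded as highest concentration tested. GI50 marks 50% less growth.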 Active and inactive are the calls of the source. Cut-off read from the data, not from the text of the source: active = GI50 up to about 1.1 µM and inactive = higher.

How the values were obtained:
Experiment in all cases: NCI tumour cell line growth inhibition, 48 h
786-0 = test system: 786-0
CAKI-1 = test system: CAKI-1
CCRF-CEM = test system: CCRF-CEM
DU-145 = test system: DU-145
LOX IMVI = test system: LOX IMVI
M14 = test system: M14
MCF7 = test system: MCF7
MDA-MB-435 = test system: MDA-MB-435
NCI-H522 = test system: NCI-H522
OVCAR-5 = test system: OVCAR-5
RXF 393 = test system: RXF 393
SF-268 = test system: SF-268
SF-295 = test system: SF-295
SK-MEL-28 = test system: SK-MEL-28
SN12C = test system: SN12C
TK-10 = test system: TK-10
U-251 = test system: U-251
MDA-MB-231 = test system: MDA-MB-231
NCI-H226 = test system: NCI-H226
RPMI-8226 = test system: RPMI-8226

Measured: GI50

CCOC(=O)c1nc2cc(F)c(F)cc2nc1NCc1cc(OC)c(OC)c(OC)c1
inactive: 786-0 57.1 µM | CAKI-1 > 100 µM | CCRF-CEM > 100 µM | DU-145 > 100 µM | LOX IMVI > 100 µM | M14 > 100 µM | MCF7 > 100 µM | MDA-MB-435 > 100 µM | NCI-H522 > 100 µM | OVCAR-5 54.2 µM | RXF 393 30.1 µM | SF-268 > 100 µM | SF-295 > 100 µM | SK-MEL-28 > 100 µM | SN12C > 100 µM | TK-10 > 100 µM | U-251 35.9 µM

CCOC(=O)c1c(C)cc(=O)n2c1[nH]c1ccccc12
inactive: 786-0 63.5 µM | CAKI-1 17.2 µM | CCRF-CEM > 100 µM | DU-145 > 100 µM | LOX IMVI > 100 µM | M14 > 100 µM | MCF7 > 100 µM | MDA-MB-231 36.6 µM | NCI-H226 > 100 µM | OVCAR-5 > 100 µM | RXF 393 > 100 µM | SF-295 74.6 µM | SK-MEL-28 > 100 µM | SN12C 37.4 µM | TK-10 99.3 µM | U-251 34.6 µM

C/C(=N/NC(N)=S)C(CN(C)C)C(C1=C(O)c2ccccc2OC1)c1ccccc1 (stereo unspecified)
inactive: 786-0 > 100 µM | CAKI-1 > 100 µM | CCRF-CEM > 100 µM | LOX IMVI > 100 µM | M14 > 100 µM | NCI-H226 > 100 µM | NCI-H522 > 100 µM | OVCAR-5 > 100 µM | RPMI-8226 > 100 µM | RXF 393 > 100 µM | SF-268 > 100 µM | SF-295 > 100 µM | SK-MEL-28 > 100 µM | SN12C > 100 µM | TK-10 > 100 µM | U-251 > 100 µM

COC(=O)/C(C#N)=C1\CCC(O)N1 (stereo unspecified)
inactive: 786-0 > 100 µM | CAKI-1 > 100 µM | CCRF-CEM > 100 µM | LOX IMVI > 100 µM | M14 > 100 µM | NCI-H226 > 100 µM | NCI-H522 > 100 µM | OVCAR-5 > 100 µM | RPMI-8226 > 100 µM | RXF 393 > 100 µM | SF-268 > 100 µM | SF-295 > 100 µM | SK-MEL-28 > 100 µM | SN12C > 100 µM | TK-10 > 100 µM | U-251 > 100 µM

NS(=O)(=O)c1nc(S(=O)(=O)O)c2[nH]cnc2n1
inactive: 786-0 > 100 µM | CAKI-1 > 100 µM | LOX IMVI > 100 µM | M14 > 100 µM | MCF7 > 100 µM | MDA-MB-231 > 100 µM | MDA-MB-435 > 100 µM | NCI-H226 > 100 µM | NCI-H522 > 100 µM | OVCAR-5 > 100 µM | RPMI-8226 > 100 µM | RXF 393 > 100 µM | SF-268 > 100 µM | SF-295 > 100 µM | SK-MEL-28 > 100 µM | SN12C > 100 µM | TK-10 > 100 µM | U-251 > 100 µM

CC(Nc1ccc(Cl)cc1)c1ccncc1 (stereo unspecified)
inactive: 786-0 > 100 µM | CAKI-1 > 100 µM | CCRF-CEM 83.9 µM | DU-145 74.6 µM | LOX IMVI > 100 µM | M14 > 100 µM | MCF7 > 100 µM | MDA-MB-435 > 100 µM | NCI-H226 > 100 µM | NCI-H522 69.5 µM | OVCAR-5 > 100 µM | RPMI-8226 12.4 µM | RXF 393 41.8 µM | SF-268 79.6 µM | SF-295 72.6 µM | SK-MEL-28 > 100 µM | SN12C > 100 µM | TK-10 > 100 µM | U-251 > 100 µM

O=C(NNC(=S)NCc1ccccc1)c1csc(NC(=S)NC2CCCCC2)n1
inactive: 786-0 45.8 µM | CAKI-1 47.3 µM | CCRF-CEM 46.2 µM | DU-145 59 µM | LOX IMVI 27.4 µM | M14 32.6 µM | MCF7 29.6 µM | MDA-MB-231 44.9 µM | MDA-MB-435 26.7 µM | NCI-H226 5.93 µM | NCI-H522 35.1 µM | OVCAR-5 > 100 µM | RPMI-8226 25.9 µM | SF-268 27.6 µM | SF-295 42.1 µM | SN12C 34.4 µM | TK-10 42.5 µM | U-251 33.3 µM

COc1cc2ccnc([C@@H](OC(=O)c3ccccc3)c3ccc(OC)c(OC)c3OC)c2cc1OC
inactive: 786-0 35.6 µM | CAKI-1 30.3 µM | CCRF-CEM 53.2 µM | LOX IMVI 39.1 µM | M14 78.3 µM | NCI-H226 35.5 µM | NCI-H522 27.8 µM | OVCAR-5 23.8 µM | RPMI-8226 54.3 µM | RXF 393 26.9 µM | SF-268 52 µM | SF-295 21.2 µM | SK-MEL-28 59.6 µM | SN12C 51.6 µM | TK-10 75.5 µM | U-251 37.5 µM
